Reference: patent publication US11628164B2, “Composition containing salsolinol for treating liver cancer” (SUNGSHIN WOMEN'S UNIVERSITY R&DB FOUNDATION, priority 2020, dated 2023)

Tests used:
SNU387 = assay: MTT cell viability, female-derived liver cancer cell line; type: cell-based, human; conditions: SNU387, 5-100 μM salsolinol, 24, 48, 72 hours
Method: SK-Hep1 and SNU387, which are human-derived hepatoma cell lines, are distributed from Korea Cell Line Bank. […] The SK-Hep1 and the SNU387 are cultured in a medium including a minimum essential medium (Dulbecco Modified Eagle Medium, DMEM) (Gibco BRL grand Island, N.Y., USA) and in a medium containing 10% FBS (HyClone Lab, Inc, Logan, Utah, USA), 100 U/ml penicillin. (penicillin) and 100 μg/ml streptomycin (Gibco, Grand Island, N.Y., USA) at 37° C. in an atmosphere of 5% CO2. The cultured liver cancer cell lines (SK-HEP1 and SNU387) are dispensed into each well of a 48-well plate so as to have a concentration of 5×10^4 cells. After culturing for 24 hours, the sample is treated with the salsolinol for 24 hours, 48 hours, and 72 hours so as to have a concentration of 5 μM, 15 μM, 25 μM, 50 μM, or 100 μM. After that, 250 μl of 0.5 mg/ml MTT solution (Sigma, St Louis, Mo., US) is added to each well and reacted at 37° C. for 1 hour. After removing the solution, MTT-formazione is lysed and washed with 250 μl of DMSO (Dimethylsulfoxide, Duksan, Gyeonggi, Korea), and then, the absorbance at 540 nm is measured by using a SpectraMax 190 microplate plate reader (Molecular Devices, LCC. San Jose, Calif.). […]

[1] = tested on: Snai1, Vimentin genes in liver tissue; assay: Real-time quantitative PCR of liver tissue, DEN-induced liver cancer mouse model; type: in vivo, C57BL/6 mouse; conditions: DEN+SAL liver tissue, corrected with β-actin
Method: A normal mouse (M-Ctrl, n=5), a DEN-induced liver cancer mouse model (M-DEN, n=4), and a DEN-induced liver cancer mouse model treated with the salsolinol (M-DEN+SAL, n=5) are sacrificed, and liver tissues are obtained. And after that, trizol is added to lyse the liver tissues. 1 ml of a TRI reagent solution is added to the liver tissue, and after homogenization, centrifuge separation is performed at 4° C. and 12,000 rpm for 10 minutes. About 0.75 ml of the middle layer excluding the upper and lower debris is separated and put into a new tube. […]
After removing the supernatant, the RNA is washed with 75% ethanol, centrifuge separation is performed at 4° C. at 7,500 rpm for 5 minutes, and the remaining ethanol is evaporated at room temperature. The separated total RNA is quantified by using Nandrop 2000 (Thermo), and after that, cDNA is synthesized by using a reverse transcription reaction oligo dT primer and RT enzyme. By using the synthesized cDNA as a template, after addition of each primer and Bio-Rad SYBR mix (#1725270) and amplification by using a Bio-Rad Real-Time PCR instrument, analysis is performed by using quantitative software. The products amplified by real time PCR are quantified by using a comparative cycle threshold (Ct) method. […]

[2] = tested on: STAT3, pSTAT3, PCNA, 15-PGDH, p53 in SK-Hep1; assay: Western blotting of tumor-related genes in SK-Hep1; type: cell-based, human
Method: 5×10^5 cells of Human-derived liver cancer cell lines SK-Hep1 and SNU387 are cultured in a 60 mm culture vessel, the cells are lysed, and proteins are separated through electrophoresis. And after that, western blotting analysis is performed by using a specific antibody. After treatment of the SK-Hep1 and the SNU387 with the salsolinol at different times and concentrations, the cells are washed with PBS, and the cells are scraped off with a scraper. The cells are lysed in a lysis buffer for 1 hour, and after that, centrifuge separation is performed at 13,000 rpm for 15 minutes at 4° C., and only the supernatant is extracted. 20 μg of protein contained in the supernatant is electrophoresed on SDS-polyacrylamide gel, and after that, transferred to a PVDF membrane for 2 hours. The sample reacts with antibodies pSTAT3(#9145), STAT3(#9132), PCNA(#2586), 15-PGDH(cayman No. 160615), p53(sc-126), p53(sc-99), pAKT(#9271), AKT(#9272), Annexin A2(#8235), and GAPDH(sc-32233). The protein is detected by using an enhanced chemiluminascence (ECL) detection solution. As a result of the above-described experiment, it is confirmed that the activity of cells in the liver cancer cell lines SK-Hep1 is decreased by the salsolinol, and particularly, the specificity for the liver cancer cell lines is confirmed. In order to check the correlation between the decrease in the activity of cells of the liver cancer cell lines by the salsolinol and the gene expression, the SK-Hep1 which is a liver cancer cell line and the SNU387 which is a liver cancer cell line are cultured, and the samples are treated with 25 μM of salsolinol d for 72 hours. After the treatment, changes in the expression levels of tumor-related genes such as STAT3, pSTAT3, PCNA, 15-PGDH, and p53 are checked (refer to FIG. 4).

[3] = tested on: normal hepatocytes (NCTC1469); conditions: NCTC1469, from KR10-2019-0129765; cited from earlier work
[4] = SK-Hep1, 25 μM salsolinol, 72 hours

CC1NCCc2cc(O)c(O)cc21 (centres unmarked) [salsolinol, 6,7-dihydroxy-1-methyl-1,2,3,4-tetrahydroisoquinoline]
cell viability (MTT) (SNU387): cell viability is not decreased
Snai1 gene expression level [1]: decreased to the expression level of expression in the normal mouse
Vimentin gene expression level [1]: decreased to the expression level of expression in the normal mouse
15-PGDH expression level [2, 4]: increased
PCNA expression level [2, 4]: slightly decreased
STAT3 expression level [2, 4]: remains constant
p53 expression level [2, 4]: increased
pSTAT3 expression level [2, 4]: decreased
phosphorylation of STAT3 over time ([2]; male-derived liver cancer cell lines, time course after treatment): rapidly increased initially, but it is rapidly decreased after 24 hours
PARP-cleavage / apoptosis [3]: PARP-cleavage is induced to induce apoptosis
fibrosis-related genes and active oxygen species [3]: increases fibrosis-related genes and active oxygen species
